Drawing on patent publication US7371773B2, “Breast cancer resistance protein (BCRP) inhibitor” (Kabushiki Kaisha Yakult Honsha, priority 2003, dated 2008), this text covers EC50 for 42 compounds.

Converted amounts (≈) assume the structure as drawn. Bounds are passed on as bounds.

In the assay the test system is A549/SN-38-4 cell line. In words: Overcoming anticancer drug resistance of A549/SN-38-4 cell line. The class given is cell-based, human. Conditions: Homo sapiens, A549; SN-38 resistance, concentration for 50% reduction of relative resistance value, 48 hours; read-out: Resistance overcoming effect EC50. Here is the method: The effect of a diphenylacrylonitrile derivative on BCRP-mediated anticancer drug resistance was studied by use of the human lung cancer A549/SN-38-4 cell line, which had acquired anticancer drug resistance through BCRP expression. The human lung cancer A549 cell line or the A549/SN-38-4 cell line was suspended in 10% FBS/Ham's F-12, and the resultant suspension was inoculated into a 96-well microplate, followed by culturing at 5% CO2 and 37° C. overnight (2×10^3 cells/50 μL/well). Thereafter, a 10% FBS/Ham's F-12 solution (25 μL) containing a diphenylacrylonitrile derivative and SN-38 or mitoxantrone was added to each of the wells, followed by culturing at 5% CO2 and 37° C. for 48 hours. After completion of culturing, the number of viable cells was counted by use of TetraColor ONE according to the attached instruction manual. […] The greater the relative resistance value, the higher the level of acquired resistance.

`COc1ccc(/C(C#N)=C/c2ccc(O)cc2)cc1OC.[Na]` [Compound 17, (Z)-2-(3,4-dimethoxy-phenyl)-3-(4-hydroxy-phenyl)-acrylonitrile sodium salt]: the EC50 turned out to be 0.018 µg/mL.

Take `COc1ccc(/C(C#N)=C/c2ccc(F)cc2)cc1OC` [Compound 18, (Z)-2-(3,4-dimethoxy-phenyl)-3-(4-fluoro-phenyl)-acrylonitrile]: the EC50 is 0.0063 µg/mL (≈ 0.0222 µM). Next, `COc1ccc(/C(C#N)=C/c2ccc([N+](=O)[O-])cc2)cc1OC` [Compound 19, (Z)-2-(3,4-dimethoxy-phenyl)-3-(4-nitro-phenyl)-acrylonitrile]: 0.019 µg/mL (≈ 0.0612 µM). The value for `COc1ccc(/C(C#N)=C/c2ccccc2F)cc1OC` [Compound 20, (Z)-2-(3,4-dimethoxy-phenyl)-3-(2-fluoro-phenyl)-acrylonitrile] was 0.053 µg/mL (≈ 0.187 µM); that for `COc1ccc(/C(C#N)=C/c2ccc(C#N)cc2)cc1OC` [Compound 21, 4-[(Z)-2-cyano-2-(3,4-dimethoxy-phenyl)-vinyl]-benzonitrile] was 0.022 µg/mL (≈ 0.0758 µM). Next, `COc1ccc(/C(C#N)=C/c2cccc(F)c2F)cc1OC` [Compound 22, (Z)-3-(2,3-difluoro-phenyl)-2-(3,4-dimethoxy-phenyl)-acrylonitrile]: 0.022 µg/mL (≈ 0.073 µM). Consider `COc1ccc(/C(C#N)=C/c2ccc(F)cc2F)cc1OC` [Compound 23, (Z)-3-(2,4-difluoro-phenyl)-2-(3,4-dimethoxy-phenyl)-acrylonitrile], for which the EC50 turned out to be 0.048 µg/mL (≈ 0.159 µM). In the case of `COc1ccc(/C(C#N)=C/c2cc(F)ccc2F)cc1OC` [Compound 24, (Z)-3-(2,5-difluoro-phenyl)-2-(3,4-dimethoxy-phenyl)-acrylonitrile], the EC50 stood at 0.0073 µg/mL (≈ 0.0242 µM). `COc1ccc(/C(C#N)=C/c2ccc(F)c(F)c2)cc1OC` [Compound 25, (Z)-3-(3,4-difluoro-phenyl)-2-(3,4-dimethoxy-phenyl)-acrylonitrile]: the EC50 is less than 0.005 µg/mL.

Regarding `COc1ccc(/C(C#N)=C/c2cc(F)cc(F)c2)cc1OC` [Compound 26, (Z)-3-(3,5-difluoro-phenyl)-2-(3,4-dimethoxy-phenyl)-acrylonitrile], the EC50 was less than 0.005 µg/mL. Next, `COc1ccc(/C(C#N)=C/c2ccc(F)c(F)c2F)cc1OC` [Compound 27, (Z)-2-(3,4-dimethoxy-phenyl)-3-(2,3,4-trifluoro-phenyl)-acrylonitrile]: 0.047 µg/mL (≈ 0.147 µM); `COc1ccc(/C(C#N)=C/c2cc(F)cc(F)c2F)cc1OC` [Compound 28, (Z)-2-(3,4-dimethoxy-phenyl)-3-(2,3,5-trifluoro-phenyl)-acrylonitrile]: 0.011 µg/mL (≈ 0.0345 µM); `COc1ccc(/C(C#N)=C/c2c(F)ccc(F)c2F)cc1OC` [Compound 29, (Z)-2-(3,4-dimethoxy-phenyl)-3-(2,3,6-trifluoro-phenyl)-acrylonitrile]: 0.1 µg/mL (≈ 0.313 µM).

As to `COc1ccc(/C(C#N)=C/c2cc(F)c(F)cc2F)cc1OC` [Compound 30, (Z)-2-(3,4-dimethoxy-phenyl)-3-(2,4,5-trifluoro-phenyl)-acrylonitrile], the EC50 worked out at 0.041 µg/mL (≈ 0.128 µM).

`COc1ccc(/C(C#N)=C/c2cc(F)c(F)c(F)c2)cc1OC` [Compound 31, (Z)-2-(3,4-dimethoxy-phenyl)-3-(3,4,5-trifluoro-phenyl)-acrylonitrile]: the EC50 stood at 0.015 µg/mL (≈ 0.047 µM). As to `COc1ccc(/C(C#N)=C/c2c(F)cccc2F)cc1OC` [Compound 32, (Z)-3-(2,6-difluoro-phenyl)-2-(3,4-dimethoxy-phenyl)-acrylonitrile], the EC50 came to 0.15 µg/mL (≈ 0.498 µM).

With `COc1ccc(/C(C#N)=C/c2cccc([N+](=O)[O-])c2)cc1OC` [Compound 33, (Z)-2-(3,4-dimethoxy-phenyl)-3-(3-nitro-phenyl)-acrylonitrile], the EC50 stood at 0.019 µg/mL (≈ 0.0612 µM). The value for `COc1ccc(/C(C#N)=C/c2ccc(N)cc2)cc1OC` [Compound 34, (Z)-3-(4-amino-phenyl)-2-(3,4-dimethoxy-phenyl)-acrylonitrile] was 0.079 µg/mL (≈ 0.282 µM). The value for `CCOC(=O)COc1ccc(/C=C(\C#N)c2ccc(OC)c(OC)c2)cc1` [Compound 35, ethyl [4-[(Z)-2-cyano-2-(3,4-dimethoxy-phenyl)-vinyl]-phenoxy]-acetate] was 0.37 µg/mL (≈ 1.01 µM); that for `COC(=O)c1ccc(/C=C(\C#N)c2ccc(OC)c(OC)c2)cc1` [Compound 36, methyl 4-[(Z)-2-cyano-2-(3,4-dimethoxy-phenyl)-vinyl]-benzoate] was 0.2 µg/mL (≈ 0.619 µM). For `COc1ccc(/C(C#N)=C/c2ccccc2[N+](=O)[O-])cc1OC` [Compound 37, (Z)-2-(3,4-dimethoxy-phenyl)-3-(2-nitro-phenyl)-acrylonitrile], the EC50 was determined as 0.085 µg/mL (≈ 0.274 µM). Next, `COc1ccc(/C(C#N)=C/c2ccc(Cl)c([N+](=O)[O-])c2)cc1OC` [Compound 38, (Z)-3-(4-chloro-3-nitro-phenyl)-2-(3,4-dimethoxy-phenyl)-acrylonitrile]: 0.037 µg/mL (≈ 0.107 µM); `COc1ccc(/C(C#N)=C/c2cc([N+](=O)[O-])ccc2F)cc1OC` [Compound 39, (Z)-2-(3,4-dimethoxy-phenyl)-3-(2-fluoro-5-nitro-phenyl)-acrylonitrile]: 0.027 µg/mL (≈ 0.0822 µM); `CCOc1ccc(/C=C(\C#N)c2ccc(OC)c(OC)c2)cc1[N+](=O)[O-]` [Compound 40, (Z)-2-(3,4-dimethoxy-phenyl)-3-(4-ethoxy-3-nitro-phenyl)-acrylonitrile]: 0.15 µg/mL (≈ 0.423 µM). Next, `COC(=O)CCC(=O)Oc1ccc(/C=C(\C#N)c2ccc(OC)c(OC)c2)cc1` [Compound 41, 4-[(Z)-2-cyano-2-(3,4-dimethoxy-phenyl)-vinyl]-phenyl methyl succinate]: 0.041 µg/mL; `CCOC(=O)CCC(=O)Oc1ccc(/C=C(\C#N)c2ccc(OC)c(OC)c2)cc1` [Compound 42, 4-[(Z)-2-cyano-2-(3,4-dimethoxy-phenyl)-vinyl]-phenyl ethyl succinate]: 0.038 µg/mL; `COc1ccc(/C(C#N)=C/c2ccc(OC(=O)CCC(=O)Oc3ccc(/C=C(\C#N)c4ccc(OC)c(OC)c4)cc3)cc2)cc1OC` [Compound 43, bis-{4-[(Z)-2-cyano-2-(3,4-dimethoxy-phenyl)-vinyl]-phenyl} succinate]: 0.12 µg/mL. Next, `COc1ccc(/C(C#N)=C/c2ccc(O)c([N+](=O)[O-])c2)cc1OC` [Compound 45, (Z)-2-(3,4-dimethoxy-phenyl)-3-(4-hydroxy-3-nitro-phenyl)-acrylonitrile]: 0.13 µg/mL (≈ 0.398 µM).

In the case of `COc1ccc(/C(C#N)=C/c2cc3c(cc2[N+](=O)[O-])OCO3)cc1OC` [Compound 46, (Z)-2-(3,4-dimethoxy-phenyl)-3-(6-nitro-benzo[1,3]dioxol-5-yl)-acrylonitrile], the EC50 amounted to 0.58 µg/mL (≈ 1.64 µM). Regarding `COCCOCOc1ccc(/C(C#N)=C/c2ccc(OC)c(OC)c2)cc1` [Compound 47, (Z)-3-(3,4-dimethoxy-phenyl)-2-[4-(2-methoxy-ethoxymethoxy)-phenyl]-acrylonitrile], the EC50 came out at 0.053 µg/mL (≈ 0.143 µM). On to `COc1ccc(/C=C(\C#N)c2ccc(O)cc2)cc1OC` [Compound 48, (Z)-3-(3,4-dimethoxy-phenyl)-2-(4-hydroxy-phenyl)-acrylonitrile], for which the EC50 turned out to be 0.013 µg/mL (≈ 0.0462 µM).

Turning to `N#C/C(=C\c1ccc(O)cc1)c1cc(C(F)(F)F)cc(C(F)(F)F)c1` [Compound 49, (Z)-2-(3,5-bis-trifluoromethyl-phenyl)-3-(4-hydroxy-phenyl)-acrylonitrile], the EC50 worked out at 0.2 µg/mL (≈ 0.56 µM). Next, `COc1ccc(/C(C#N)=C\c2ccc(O)cc2)cc1OC` [Compound 50, (E)-2-(3,4-dimethoxy-phenyl)-3-(4-hydroxy-phenyl)-acrylonitrile]: 0.094 µg/mL (≈ 0.334 µM); `CCOc1ccc([N+](=O)[O-])cc1/C=C(\C#N)c1ccc(OC)c(OC)c1` [Compound 52, (Z)-2-(3,4-dimethoxy-phenyl)-3-(2-ethoxy-5-nitro-phenyl)-acrylonitrile]: 0.024 µg/mL (≈ 0.0677 µM); `COc1ccc(/C(C#N)=C/c2ccc([N+](=O)[O-])c(O)c2)cc1OC` [Compound 53, (Z)-2-(3,4-dimethoxy-phenyl)-3-(3-hydroxy-4-nitro-phenyl)-acrylonitrile]: 0.048 µg/mL (≈ 0.147 µM). On to `COc1ccc(/C(C#N)=C/c2cccc(F)c2O)cc1OC` [Compound 55, (Z)-2-(3,4-dimethoxy-phenyl)-3-(3-fluoro-2-hydroxy-phenyl)-acrylonitrile], for which the EC50 was determined as 0.015 µg/mL (≈ 0.0501 µM).

On to `COc1ccc(/C=C(\C#N)c2ccc(OC)c(OC)c2)cc1OC` [Compound 56, (Z)-2,3-bis-(3,4-dimethoxy-phenyl)-acrylonitrile], for which the EC50 worked out at 0.016 µg/mL (≈ 0.0492 µM). Next, `COCCOCOc1ccc(/C=C(\C#N)c2ccc(OC)c(OC)c2)cc1F` [Compound 58, (Z)-2-(3,4-dimethoxy-phenyl)-3-[3-fluoro-4-(2-methoxy-ethoxymethoxy)-phenyl]-acrylonitrile]: 0.033 µg/mL (≈ 0.0852 µM).

Regarding `COc1ccc(/C(C#N)=C/c2ccc(O)c(F)c2)cc1OC` [Compound 59, (Z)-2-(3,4-dimethoxy-phenyl)-3-(3-fluoro-4-hydroxy-phenyl)-acrylonitrile], the half-maximal effective concentration (EC50) was 0.043 µg/mL (≈ 0.144 µM). The value for `COc1ccc(/C=C(\C#N)c2ccc(OC(C)=O)cc2)cc1OC` [Compound 61, 4-[(Z)-1-cyano-2-(3,4-dimethoxy-phenyl)-vinyl]phenyl acetate] was 0.024 µg/mL; that for `COc1ccc(/C(C#N)=C/c2ccc(C=O)cc2)cc1OC` [Compound 62, (Z)-2-(3,4-dimethoxy-phenyl)-3-(4-formyl-phenyl)-acrylonitrile] was 0.11 µg/mL (≈ 0.375 µM).

Consider `CCOc1cc(/C(C#N)=C/c2ccc(OC)c(OC)c2)ccc1OC(C)=O` [Compound 63, 4-[(Z)-1-cyano-2-(3,4-dimethoxy-phenyl)-vinyl]-2-ethoxy-phenyl acetate], for which the EC50 came to 0.024 µg/mL.
